Data set [1] is described as follows: AUC(1 to 4 hrs) in mouse at 10 mg/kg, po. In kind it is ADME, organism-based. Also on record: time upper 4 hr, time lower 1 hr, dose 10 mg/kg, route oral. The following applies: plasma.
Data set [2] is described as follows: Cytotoxicity against Jurkat cells by Alamar blue assay. The following applies: human, Jurkat cells.
The test system of data set [3] is Liver. Description: Metabolic stability in mouse liver microsomes. In kind it is ADME, Microsome.
Data set [4] can be described thus: Drug level in LPS-challenged mouse serum at 30 mg/kg after 5.5 hrs. In kind it is ADME, organism-based. The arrangement: dose 30 mg/kg. The following applies: read-out: Activity.
The subject of data set [5] is Mus musculus. Description: Reduction of LPS-induced TNFalpha release in mouse at 30 mg/kg administered 4 hrs before LPS challenge. In kind it is functional.
Data set [6] concerns the target T1, Inhibitor of nuclear factor kappa-B kinase subunit beta (Homo sapiens, UniProt O14920).
T1 sequence (O14920 whole entry): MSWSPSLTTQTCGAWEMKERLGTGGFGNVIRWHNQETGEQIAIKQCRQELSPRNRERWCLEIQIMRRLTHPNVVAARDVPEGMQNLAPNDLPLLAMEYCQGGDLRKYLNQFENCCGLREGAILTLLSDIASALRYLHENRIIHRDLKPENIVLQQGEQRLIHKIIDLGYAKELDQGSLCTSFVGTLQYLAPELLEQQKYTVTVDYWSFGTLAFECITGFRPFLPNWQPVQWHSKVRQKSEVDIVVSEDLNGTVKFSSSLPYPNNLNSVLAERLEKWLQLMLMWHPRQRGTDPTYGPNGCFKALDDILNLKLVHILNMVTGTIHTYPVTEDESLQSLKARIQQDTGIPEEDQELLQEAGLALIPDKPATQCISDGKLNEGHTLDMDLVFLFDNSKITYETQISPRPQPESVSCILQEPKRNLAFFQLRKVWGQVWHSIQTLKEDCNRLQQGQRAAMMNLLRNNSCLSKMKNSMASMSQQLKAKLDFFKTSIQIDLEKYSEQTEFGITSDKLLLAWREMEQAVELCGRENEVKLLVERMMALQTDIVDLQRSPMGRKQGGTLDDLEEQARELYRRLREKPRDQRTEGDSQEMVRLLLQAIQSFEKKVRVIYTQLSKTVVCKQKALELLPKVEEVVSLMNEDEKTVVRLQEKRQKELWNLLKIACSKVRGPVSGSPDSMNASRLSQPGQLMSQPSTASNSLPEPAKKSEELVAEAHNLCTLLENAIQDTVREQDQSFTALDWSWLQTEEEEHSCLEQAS

Data set [7] addresses T2, Inhibitor of nuclear factor kappa-B kinase subunit alpha (Homo sapiens, UniProt O15111).
T2 sequence (O15111 whole entry): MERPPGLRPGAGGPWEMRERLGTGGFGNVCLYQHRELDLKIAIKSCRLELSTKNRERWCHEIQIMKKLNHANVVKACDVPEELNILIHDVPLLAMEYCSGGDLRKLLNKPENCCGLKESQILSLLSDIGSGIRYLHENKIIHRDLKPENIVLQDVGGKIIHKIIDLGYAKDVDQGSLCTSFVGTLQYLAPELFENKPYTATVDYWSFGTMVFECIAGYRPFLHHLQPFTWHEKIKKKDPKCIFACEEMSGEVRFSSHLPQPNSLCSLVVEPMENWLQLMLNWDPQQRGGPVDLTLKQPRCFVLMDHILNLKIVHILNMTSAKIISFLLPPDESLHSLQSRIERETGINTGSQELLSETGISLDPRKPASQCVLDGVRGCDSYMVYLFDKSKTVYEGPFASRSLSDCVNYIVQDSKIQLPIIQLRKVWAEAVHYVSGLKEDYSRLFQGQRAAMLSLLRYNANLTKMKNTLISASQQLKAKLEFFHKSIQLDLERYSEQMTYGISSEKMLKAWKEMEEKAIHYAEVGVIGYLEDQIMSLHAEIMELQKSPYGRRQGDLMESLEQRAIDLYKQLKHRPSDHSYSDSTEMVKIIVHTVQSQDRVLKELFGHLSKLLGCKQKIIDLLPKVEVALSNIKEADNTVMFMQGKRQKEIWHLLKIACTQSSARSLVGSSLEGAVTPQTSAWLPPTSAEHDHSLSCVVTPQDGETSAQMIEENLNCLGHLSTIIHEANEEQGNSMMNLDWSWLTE

Data set [8] relates to PBMC. Description: Inhibition of LPS-induced TNFalpha production in PBMC. The following applies: Homo sapiens. In kind it is functional, cell-based.
For data set [9], the system named is Jurkat. Put plainly: Inhibition of TNF-alpha-induced response in Jurkat cells. The following applies: Homo sapiens.
Data set [10] in a line: Cmax in mouse at 10 mg/kg, po. In kind it is ADME, organism-based. Also on record: dose 10 mg/kg, route oral. The following applies: in vivo.
The nature of data set [11]: Drug level in LPS-challenged mouse serum at 30 mg/kg after 2.5 hrs. In kind it is ADME, organism-based. Also on record: dose 30 mg/kg. The following applies: read-out: Activity.
Data set [12] can be described thus: Tmax in mouse at 10 mg/kg, po. Type of data set: ADME, organism-based. Also on record: dose 10 mg/kg, route oral. As to conditions: in vivo.
In data set [13] the test system is Liver microsomes. Description: Metabolic stability in human liver microsomes. In kind it is ADME, Microsome.
In data set [14] the test system is Mus musculus. Put plainly: Reduction of LPS-induced TNFalpha release in mouse at 30 mg/kg administered 1 hr before LPS challenge. In kind it is functional. Also on record: scale not given: the % may be the effect or the level left.
Data set [15] addresses Receptor tyrosine-protein kinase erbB-2 (Homo sapiens) (UniProt P04626). Description: Inhibition of Her2.
Data set [16] deals with T3, Inhibitor of nuclear factor kappa-B kinase subunit epsilon (Homo sapiens) (UniProt Q14164).
T3 sequence (whole entry): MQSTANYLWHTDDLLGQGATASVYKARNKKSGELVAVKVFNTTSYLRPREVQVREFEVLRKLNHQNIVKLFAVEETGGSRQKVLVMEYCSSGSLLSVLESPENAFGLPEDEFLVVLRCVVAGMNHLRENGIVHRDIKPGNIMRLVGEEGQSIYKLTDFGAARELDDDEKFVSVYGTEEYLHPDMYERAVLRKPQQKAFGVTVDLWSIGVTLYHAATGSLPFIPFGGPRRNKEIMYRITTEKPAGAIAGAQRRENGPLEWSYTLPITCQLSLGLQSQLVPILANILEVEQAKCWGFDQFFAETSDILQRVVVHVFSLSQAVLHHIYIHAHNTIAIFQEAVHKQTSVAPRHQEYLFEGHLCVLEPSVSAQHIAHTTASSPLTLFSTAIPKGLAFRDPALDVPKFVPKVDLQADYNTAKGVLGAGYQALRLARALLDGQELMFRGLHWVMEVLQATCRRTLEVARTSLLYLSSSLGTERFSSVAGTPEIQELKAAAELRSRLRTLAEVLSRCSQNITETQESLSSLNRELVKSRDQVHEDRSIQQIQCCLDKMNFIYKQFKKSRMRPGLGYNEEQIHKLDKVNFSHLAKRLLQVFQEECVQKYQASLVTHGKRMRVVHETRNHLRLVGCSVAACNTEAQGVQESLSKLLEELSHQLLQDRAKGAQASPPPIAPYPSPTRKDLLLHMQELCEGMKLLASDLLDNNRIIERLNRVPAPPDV
Description: Inhibition of IKKepsilon.

In data set [17] the target is MAP kinase p38 (Homo sapiens) (UniProt O15264+Q15759+Q16539+P53778). Put plainly: Inhibition of p38. In kind it is protein assay.
Data set [18] is filed under the species Homo sapiens. Description: Inhibition of PKA.
For data set [19], the target named is Epidermal growth factor receptor (Homo sapiens) (UniProt P00533). Put plainly: Inhibition of Her1.
The nature of data set [20]: Aqueous solubility in sodium phosphate buffer at pH 6.5. In kind it is physicochemical.
In data set [21] the target is T4, Tyrosine-protein kinase ITK/TSK (Homo sapiens) (UniProt Q08881).
T4 sequence (whole entry): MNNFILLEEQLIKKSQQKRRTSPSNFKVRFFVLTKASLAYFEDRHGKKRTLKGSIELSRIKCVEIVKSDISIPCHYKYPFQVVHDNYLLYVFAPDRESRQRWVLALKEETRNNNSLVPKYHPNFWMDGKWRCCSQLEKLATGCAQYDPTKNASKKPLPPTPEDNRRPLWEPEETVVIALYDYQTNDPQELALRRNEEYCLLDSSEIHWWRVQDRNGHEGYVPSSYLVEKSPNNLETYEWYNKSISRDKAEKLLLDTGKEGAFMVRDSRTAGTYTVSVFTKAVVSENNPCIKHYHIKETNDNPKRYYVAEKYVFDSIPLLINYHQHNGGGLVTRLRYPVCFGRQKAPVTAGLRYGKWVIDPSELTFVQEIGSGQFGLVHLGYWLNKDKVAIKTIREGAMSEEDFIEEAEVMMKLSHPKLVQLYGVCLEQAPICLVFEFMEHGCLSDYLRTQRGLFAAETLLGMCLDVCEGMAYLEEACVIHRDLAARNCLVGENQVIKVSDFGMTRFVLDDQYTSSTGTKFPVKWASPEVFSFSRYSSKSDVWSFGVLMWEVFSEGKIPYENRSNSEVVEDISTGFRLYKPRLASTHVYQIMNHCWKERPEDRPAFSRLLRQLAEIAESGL
Description: Inhibition of EMT.

The target in data set [22] is Tyrosine-protein kinase Lck (Homo sapiens) (UniProt P06239). Put plainly: Inhibition of LCK.
Data set [23] is filed under the species Homo sapiens. Description: Inhibition of VEGF.
Data set [24] deals with Insulin-like growth factor 1 receptor (Homo sapiens) (UniProt P08069). Description: Inhibition of IGF1R.

The source made the active and inactive calls. No cut-off for these calls is given here. Where only a bound is given, the exact number is not on record here.

Chain of Insulin-like growth factor 1 receptor (Homo sapiens) (P08069 31-736 limits assumed): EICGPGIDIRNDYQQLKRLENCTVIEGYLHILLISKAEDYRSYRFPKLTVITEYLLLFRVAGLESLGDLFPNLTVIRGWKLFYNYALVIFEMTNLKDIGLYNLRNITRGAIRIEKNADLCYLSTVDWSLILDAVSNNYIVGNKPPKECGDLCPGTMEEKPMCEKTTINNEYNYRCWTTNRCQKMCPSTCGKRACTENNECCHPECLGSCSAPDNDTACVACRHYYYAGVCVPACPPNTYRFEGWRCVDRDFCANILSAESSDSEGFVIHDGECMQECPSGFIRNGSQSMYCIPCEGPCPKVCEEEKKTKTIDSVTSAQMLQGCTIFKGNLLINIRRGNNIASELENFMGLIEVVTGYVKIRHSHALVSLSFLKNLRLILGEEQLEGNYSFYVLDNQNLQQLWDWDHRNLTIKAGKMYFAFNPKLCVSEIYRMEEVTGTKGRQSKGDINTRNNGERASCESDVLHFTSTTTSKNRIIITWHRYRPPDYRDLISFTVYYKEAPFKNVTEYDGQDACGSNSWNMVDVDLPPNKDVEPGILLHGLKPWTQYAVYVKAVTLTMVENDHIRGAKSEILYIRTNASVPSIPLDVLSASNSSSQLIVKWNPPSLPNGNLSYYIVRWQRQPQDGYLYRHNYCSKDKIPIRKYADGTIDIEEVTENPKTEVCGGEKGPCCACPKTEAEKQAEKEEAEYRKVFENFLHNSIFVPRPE
Chain of Insulin-like growth factor 1 receptor (Homo sapiens) (P08069 741-1367 limits assumed): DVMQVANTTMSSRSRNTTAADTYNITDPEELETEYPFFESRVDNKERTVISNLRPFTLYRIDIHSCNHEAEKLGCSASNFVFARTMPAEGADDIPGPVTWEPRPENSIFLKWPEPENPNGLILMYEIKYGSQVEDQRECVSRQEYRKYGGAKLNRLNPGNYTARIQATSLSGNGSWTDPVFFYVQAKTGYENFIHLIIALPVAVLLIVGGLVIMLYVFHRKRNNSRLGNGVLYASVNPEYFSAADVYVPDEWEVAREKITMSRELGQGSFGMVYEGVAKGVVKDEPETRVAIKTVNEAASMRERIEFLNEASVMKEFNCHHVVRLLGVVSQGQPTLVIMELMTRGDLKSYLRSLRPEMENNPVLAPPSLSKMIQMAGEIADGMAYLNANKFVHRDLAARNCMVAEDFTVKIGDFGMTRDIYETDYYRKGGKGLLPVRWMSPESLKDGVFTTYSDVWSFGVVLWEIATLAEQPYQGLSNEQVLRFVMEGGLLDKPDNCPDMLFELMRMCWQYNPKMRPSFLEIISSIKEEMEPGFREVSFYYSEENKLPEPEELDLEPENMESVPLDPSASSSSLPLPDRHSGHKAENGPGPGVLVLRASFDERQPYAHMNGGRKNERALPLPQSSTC
Chain of Tyrosine-protein kinase Lck (Homo sapiens) (P06239 2-509 limits assumed): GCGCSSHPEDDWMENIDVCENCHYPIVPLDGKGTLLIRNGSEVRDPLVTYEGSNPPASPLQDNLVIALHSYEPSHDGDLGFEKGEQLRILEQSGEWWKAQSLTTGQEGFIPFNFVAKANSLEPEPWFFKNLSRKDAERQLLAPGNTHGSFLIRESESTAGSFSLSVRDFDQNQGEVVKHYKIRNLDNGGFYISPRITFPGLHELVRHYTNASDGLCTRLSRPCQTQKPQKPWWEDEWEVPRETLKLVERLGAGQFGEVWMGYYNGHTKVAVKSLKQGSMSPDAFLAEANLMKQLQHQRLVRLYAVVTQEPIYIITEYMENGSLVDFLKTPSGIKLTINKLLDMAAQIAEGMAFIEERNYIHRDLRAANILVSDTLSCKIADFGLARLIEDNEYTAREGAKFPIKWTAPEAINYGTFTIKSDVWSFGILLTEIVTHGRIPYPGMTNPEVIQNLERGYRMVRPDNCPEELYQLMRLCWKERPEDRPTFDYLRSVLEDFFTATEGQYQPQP
Chain of Epidermal growth factor receptor (Homo sapiens) (P00533 whole entry): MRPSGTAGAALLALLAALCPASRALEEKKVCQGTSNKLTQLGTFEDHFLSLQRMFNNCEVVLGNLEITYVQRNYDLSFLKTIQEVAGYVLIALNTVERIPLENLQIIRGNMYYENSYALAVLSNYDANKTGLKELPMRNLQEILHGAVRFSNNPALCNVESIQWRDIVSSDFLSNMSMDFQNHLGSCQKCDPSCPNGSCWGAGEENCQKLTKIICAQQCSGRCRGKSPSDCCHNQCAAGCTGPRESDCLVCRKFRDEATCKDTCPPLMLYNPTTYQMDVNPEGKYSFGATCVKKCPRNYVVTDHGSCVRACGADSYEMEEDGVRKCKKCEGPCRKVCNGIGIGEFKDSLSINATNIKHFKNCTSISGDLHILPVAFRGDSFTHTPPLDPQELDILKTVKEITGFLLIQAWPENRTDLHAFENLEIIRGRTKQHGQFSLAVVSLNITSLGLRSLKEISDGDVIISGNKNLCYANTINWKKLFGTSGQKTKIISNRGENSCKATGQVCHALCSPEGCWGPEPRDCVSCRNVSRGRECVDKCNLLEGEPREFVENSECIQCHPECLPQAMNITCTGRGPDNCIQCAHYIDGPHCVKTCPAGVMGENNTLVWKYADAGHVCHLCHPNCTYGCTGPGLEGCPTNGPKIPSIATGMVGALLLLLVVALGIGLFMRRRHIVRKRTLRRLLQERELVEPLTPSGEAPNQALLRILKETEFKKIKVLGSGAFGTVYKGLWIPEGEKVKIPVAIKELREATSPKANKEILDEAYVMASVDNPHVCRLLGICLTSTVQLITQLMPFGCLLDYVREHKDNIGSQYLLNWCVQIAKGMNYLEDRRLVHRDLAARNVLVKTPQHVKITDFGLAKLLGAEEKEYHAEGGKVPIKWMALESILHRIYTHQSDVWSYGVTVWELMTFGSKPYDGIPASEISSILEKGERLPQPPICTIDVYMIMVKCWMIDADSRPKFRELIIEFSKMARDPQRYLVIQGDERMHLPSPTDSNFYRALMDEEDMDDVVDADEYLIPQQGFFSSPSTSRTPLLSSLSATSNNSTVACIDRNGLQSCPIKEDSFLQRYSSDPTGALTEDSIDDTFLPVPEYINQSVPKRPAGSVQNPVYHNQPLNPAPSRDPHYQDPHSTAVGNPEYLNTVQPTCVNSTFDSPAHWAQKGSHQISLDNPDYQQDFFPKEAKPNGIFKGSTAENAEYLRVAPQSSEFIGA
Chain of Receptor tyrosine-protein kinase erbB-2 (Homo sapiens) (P04626 whole entry): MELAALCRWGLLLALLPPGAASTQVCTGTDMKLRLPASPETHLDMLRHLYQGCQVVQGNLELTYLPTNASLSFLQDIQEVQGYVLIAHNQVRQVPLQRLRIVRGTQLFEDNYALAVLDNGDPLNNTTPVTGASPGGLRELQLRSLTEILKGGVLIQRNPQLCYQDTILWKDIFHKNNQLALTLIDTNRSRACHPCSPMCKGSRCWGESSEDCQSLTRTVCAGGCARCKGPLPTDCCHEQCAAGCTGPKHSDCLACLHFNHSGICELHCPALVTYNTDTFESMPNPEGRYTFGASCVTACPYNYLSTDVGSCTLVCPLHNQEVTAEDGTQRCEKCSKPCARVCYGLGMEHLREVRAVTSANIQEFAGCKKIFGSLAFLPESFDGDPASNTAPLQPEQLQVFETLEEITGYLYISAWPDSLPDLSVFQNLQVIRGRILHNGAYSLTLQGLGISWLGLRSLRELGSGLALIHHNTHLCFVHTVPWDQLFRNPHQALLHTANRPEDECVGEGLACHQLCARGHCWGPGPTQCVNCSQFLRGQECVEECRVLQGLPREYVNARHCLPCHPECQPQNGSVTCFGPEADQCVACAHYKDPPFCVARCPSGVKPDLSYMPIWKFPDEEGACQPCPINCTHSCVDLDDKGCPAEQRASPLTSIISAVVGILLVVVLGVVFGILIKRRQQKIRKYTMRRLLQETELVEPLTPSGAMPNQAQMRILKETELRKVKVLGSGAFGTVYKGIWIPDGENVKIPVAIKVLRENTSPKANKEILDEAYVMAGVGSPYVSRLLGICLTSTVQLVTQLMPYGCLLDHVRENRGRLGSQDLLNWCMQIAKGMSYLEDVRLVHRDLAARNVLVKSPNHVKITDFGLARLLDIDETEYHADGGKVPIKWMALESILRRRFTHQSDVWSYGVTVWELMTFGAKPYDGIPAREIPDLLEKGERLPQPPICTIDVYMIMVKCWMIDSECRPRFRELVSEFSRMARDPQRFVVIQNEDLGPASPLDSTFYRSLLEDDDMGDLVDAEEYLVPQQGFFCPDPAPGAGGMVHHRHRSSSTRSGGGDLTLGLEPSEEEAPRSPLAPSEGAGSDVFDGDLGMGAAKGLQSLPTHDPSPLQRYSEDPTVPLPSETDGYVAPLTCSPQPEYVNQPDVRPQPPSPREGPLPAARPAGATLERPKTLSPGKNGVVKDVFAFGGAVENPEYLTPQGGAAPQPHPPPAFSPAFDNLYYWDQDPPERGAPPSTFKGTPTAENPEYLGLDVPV

In data set [1], `CNc1nc2cc(-c3cccc(CCNCC(N)=O)c3)sc2n2c(C)cnc12` returned an AUC(0-t) of 9.6 µM·h. For the same molecule, the CC50 in data set [2] was greater than 100000 nM. For the same molecule, the Stability in data set [3] turned out to be 0.07 nmol/mg/min; in [13], 0.017 nmol/mg/min. Also, in data set [4], the concentration at 5.5 h came to 2.1 µM. The outcome in [5] was inactive. In addition, the IC50 is 13 nM in data set [6] and 390 nM in data set [7]. Besides, the EC50 in data set [8] was 1370 nM; in [9] it was 1810 nM. In data set [10], the Cmax was found to be 5.2 µM. Further, in [11], the concentration at 2.5 h is 14.3 µM. For the same molecule, in data set [12], the Tmax amounted to 60 min. The same molecule displayed an Activity in [14] of 49%.

For `CNc1nc2cc(-c3ccccc3)sc2n2c(C)cnc12`, the result in [15], in data set [16], in data set [17], in data set [18], in [19] and in [21] was inactive. For the same molecule, the outcome in data set [22], in data set [23] and in data set [24] was inactive. Besides, in data set [2], the CC50 is greater than 100000 nM. Also, the IC50 in [6] is 27 nM; in [7], 1090 nM. The molecule also showed a solubility in data set [20] of less than 1 µg/mL. In addition, the EC50 in data set [9] was 1350 nM.

For the molecule `Cc1ccc2nc(NCCN)c3ncc(C)n3c2c1` [BMS-345541], in data set [1], the AUC(0-t) was found to be 3.8 µM·h. Besides, in data set [2], half-maximal cytotoxicity (CC50) was put at 100000 nM. For the same molecule, the Stability in data set [3] is 0.016 nmol/mg/min; in data set [13], less than 0.01 nmol/mg/min. For the same molecule, in [4], the concentration at 5.5 h was determined as 4.2 µM. The Activity in data set [5] amounted to 70%; in [14], 82%. For the same molecule, the EC50 in data set [8] turned out to be 800 nM; in [9], 13300 nM. Also, the peak level in data set [10] (Cmax) was 1.4 µM. Further, the concentration at 2.5 h in data set [11] came out at 7.6 µM. Moreover, the Tmax in data set [12] came out at 30 min.

The values above are taken from ChEMBL document CHEMBL1140018, “Synthesis and structure-activity relationship of imidazo(1,2-a)thieno(3,2-e)pyrazines as IKK-beta inhibitors” (Bioorg Med Chem Lett, 2007).
